From US8952024B2, “Herbicidal pyrimidone derivatives” (E I du Pont de Nemours and Company, priority 2009, dated 2015)

Experiments:
Type in all cases: in vivo
[1] = test system: wheat (Triticum aestivum); test: Test A pre-/postemergence plant response
Summary of the method: (§1)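 Pre: directed soil spray on seeded loam/sand blend. Post: same formulation (non-phytotoxic solvent + surfactant) on 2–10 cm plants, 1–2 leaf stage. Greenhouse ~10 d; visual injury score 0–100 vs untreated.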

[2] = test system: velvetleaf (Abutilon theophrasti); test: Test A pre-/postemergence plant response
Summary of the method: as §1

[3] = test system: barnyardgrass (Echinochloa crus-galli); test: Test A pre-/postemergence plant response
Summary of the method: as §1

[4] = test system: morningglory (Ipomoea spp.); test: Test A pre-/postemergence plant response
Summary of the method: as §1

corn (Zea mays) = test: Test A pre-/postemergence plant response
Summary of the method: as §1

[5] = test system: giant foxtail (Setaria faberii); test: Test A pre-/postemergence plant response
Summary of the method: as §1

[6] = test system: pigweed (Amaranthus retroflexus); test: Test A pre-/postemergence plant response
Summary of the method: as §1

[7] = test system: large crabgrass (Digitaria sanguinalis); test: Test A pre-/postemergence plant response
Summary of the method: as §1

[8] = test system: winter barley (Hordeum vulgare); test: Test B postemergence plant response
Summary of the method: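 Plants grown in peat/vermiculite medium were sprayed postemergence at 2–18 cm height (1- to 4-leaf stage). After 13–15 days in the greenhouse, response was rated visually against untreated controls on a 0–100 scale (0 no effect, 100 complete control).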

[9] = test system: barnyardgrass (Echinochloa crus-galli); test: Test B flooded paddy test; settings: for Plant response rating, Flood, Barnyardgrass: 250 g ai/ha, flooded paddy test, visual rating on 0 to 100 scale (0 no effect, 100 complete control) after 13 to 15 days; for Plant response rating, Barnyardgrass: Flood (flooded paddy test), 13 to 15 days
Summary of the method: (§2)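 Seedlings reaching 2 leaves are flooded 3 cm deep; test material is delivered to that water, which stays at the same depth. Plants remain in a greenhouse 13–15 days and are then scored by eye versus controls from 0 to 100.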

rice (Oryza sativa) = test: Test B flooded paddy test; settings: for Plant response rating, Flood, Rice: 250 g ai/ha, flooded paddy test, visual rating on 0 to 100 scale (0 no effect, 100 complete control) after 13 to 15 days; for Plant response rating, Rice: Flood (flooded paddy test), 13 to 15 days
Summary of the method: as §2

[10] = test system: umbrella sedge (Cyperus difformis); test: Test B flooded paddy test; settings: for Plant response rating, Flood, Sedge, Umbrella: 250 g ai/ha, flooded paddy test, visual rating on 0 to 100 scale (0 no effect, 100 complete control) after 13 to 15 days; for Plant response rating, Sedge, Umbrella: Flood (flooded paddy test), 13 to 15 days
Summary of the method: as §2

[11] = test system: ducksalad (Heteranthera limosa); test: Test B flooded paddy test; settings: for Plant response rating, Flood, Ducksalad: 250 g ai/ha, flooded paddy test, visual rating on 0 to 100 scale (0 no effect, 100 complete control) after 13 to 15 days; for Plant response rating, Ducksalad: Flood (flooded paddy test), 13 to 15 days
Summary of the method: as §2

[12] = Postemergence, 125 g ai/ha, 0 to 100 scale where 0 is no effect and 100 is complete control
[13] = Postemergence, 500 g ai/ha, 0 to 100 scale, 0 = no effect, 100 = complete control, approx. ten days
[14] = Preemergence, 125 g ai/ha, 0 to 100 scale, 0 = no effect, 100 = complete control
[15] = Preemergence, 500 g ai/ha, visual injury, 0 to 100 scale (0 no effect, 100 complete control), approx. ten days
[16] = 62 g ai/ha, scale of 0 to 100 where 0 is no effect and 100 is complete control
[17] = Postemergence, 125 g ai/ha, visual injury, 0 to 100 scale (0 no effect, 100 complete control), approx. ten days
[18] = 31 g ai/ha, scale of 0 to 100 where 0 is no effect and 100 is complete control
[19] = 125 g ai/ha, scale 0 to 100, 0 is no effect, 100 is complete control

## CCn1c(-c2cc(F)cc(F)c2)ncc(C(=O)C2=C(O)CCCC2=O)c1=O [Compound 122]
[1]; [12]
  Plant response rating, Wheat: 0
[1]; [13]
  Plant response rating, Wheat: 50
[1]; [14]
  Plant response rating, Wheat: 0
[1]; [15]
  Plant response rating, Wheat: 40
[2]; [12]
  Plant response rating, Velvetleaf: 100
[2]; [13]
  Plant response rating, Velvetleaf: 100
[2]; [14]
  Plant response rating, Velvetleaf: 100
[2]; [15]
  Plant response rating, Velvetleaf: 100
[3]; [12]
  Plant response rating, Barnyardgrass: 60
[3]; [13]
  Plant response rating, Barnyardgrass: 80
[3]; [14]
  Plant response rating, Barnyardgrass: 30
[3]; [15]
  Plant response rating, Barnyardgrass: 100
[4]; [12]
  Plant response rating, Morningglory: 90
[4]; [13]
  Plant response rating, Morningglory: 100
[4]; [14]
  Plant response rating, Morningglory: 40
[4]; [15]
  Plant response rating, Morningglory: 80
Corn (Zea mays); [12]
  Plant response rating, Corn: 0
Corn (Zea mays); [13]
  Plant response rating, Corn: 30
Corn (Zea mays); [14]
  Plant response rating, Corn: 0
Corn (Zea mays); [15]
  Plant response rating, Corn: 0
[5]; [12]
  Plant response rating, Foxtail, Giant: 70
[5]; [13]
  Plant response rating, Foxtail, Giant: 80
[5]; [14]
  Plant response rating, Foxtail, Giant: 30
[5]; [15]
  Plant response rating, Foxtail, Giant: 100
[6]; [12]
  Plant response rating, Pigweed: 100
[6]; [13]
  Plant response rating, Pigweed: 100
[6]; [14]
  Plant response rating, Pigweed: 100
[6]; [15]
  Plant response rating, Pigweed: 100
[7]; [12]
  Plant response rating, Crabgrass, Large: 70
[7]; [13]
  Plant response rating, Crabgrass, Large: 90
[7]; [14]
  Plant response rating, Crabgrass, Large: 90
[7]; [15]
  Plant response rating, Crabgrass, Large: 100
[8]; 16 g ai/ha, Postemergence, 0 to 100 scale
  Plant response rating, Barley: 0
[8]; 62 g ai/ha, postemergence, 0 is no effect, 100 is complete control, 13 to 15 days
  Barley plant response rating (0 to 100 scale): 10
[8]; Postemergence, 31 g ai/ha, 0 to 100 scale (0 no effect, 100 complete control)
  Plant response rating, Barley: 0
[8]; Postemergence, 125 g ai/ha, scale 0 to 100 (0 no effect, 100 complete control)
  Plant response rating, Barley: 50
[9]
  Plant response rating, Flood, Barnyardgrass: 40
[9]; [16]
  Plant response rating, Barnyardgrass: 20
Rice (Oryza sativa)
  Plant response rating, Flood, Rice: 15
Rice (Oryza sativa); [16]
  Plant response rating, Rice: 0
[10]
  Plant response rating, Flood, Sedge, Umbrella: 45
[10]; [16]
  Plant response rating, Sedge, Umbrella: 20
[11]
  Plant response rating, Flood, Ducksalad: 0
[11]; [16]
  Plant response rating, Ducksalad: 0

## Cc1ccc(F)c(-n2c(-c3ccccc3)ncc(C(=O)C3=C(O)CCCC3=O)c2=O)c1 [Compound 51]
[1]; [17]
  Wheat plant response rating: 0
[1]; [13]
  Plant response rating, Wheat: 0
[1]; [14]
  Plant response rating, Wheat: 0
[1]; [15]
  Plant response rating, Wheat: 0
[2]; [17]
  Velvetleaf plant response rating: 100
[2]; [13]
  Plant response rating, Velvetleaf: 100
[2]; [14]
  Plant response rating, Velvetleaf: 70
[2]; [15]
  Plant response rating, Velvetleaf: 90
[3]; [17]
  Barnyardgrass plant response rating: 90
[3]; [13]
  Plant response rating, Barnyardgrass: 90
[3]; [14]
  Plant response rating, Barnyardgrass: 10
[3]; [15]
  Plant response rating, Barnyardgrass: 90
[4]; [17]
  Morningglory plant response rating: 100
[4]; [13]
  Plant response rating, Morningglory: 100
[4]; [15]
  Plant response rating, Morningglory: 90
Corn (Zea mays); [17]
  Corn plant response rating: 0
Corn (Zea mays); [13]
  Plant response rating, Corn: 80
Corn (Zea mays); [14]
  Plant response rating, Corn: 0
Corn (Zea mays); [15]
  Plant response rating, Corn: 0
[5]; [17]
  Foxtail, Giant plant response rating: 90
[5]; [13]
  Plant response rating, Foxtail, Giant: 90
[5]; [14]
  Plant response rating, Foxtail, Giant: 30
[5]; [15]
  Plant response rating, Foxtail, Giant: 100
[6]; [17]
  Pigweed plant response rating: 100
[6]; [13]
  Plant response rating, Pigweed: 100
[6]; [14]
  Plant response rating, Pigweed: 90
[6]; [15]
  Plant response rating, Pigweed: 100
[7]; [17]
  Crabgrass, Large plant response rating: 90
[7]; [13]
  Plant response rating, Crabgrass, Large: 100
[7]; [14]
  Plant response rating, Crabgrass, Large: 30
[7]; [15]
  Plant response rating, Crabgrass, Large: 100
[8]; 31 g ai/ha, postemergence, scale 0 to 100, 0 is no effect, 100 is complete control
  Plant response rating, Barley: 5
[8]; Postemergence, 62 g ai/ha, scale 0 (no effect) to 100 (complete control), 13 to 15 days
  Plant response rating, Barley: 25
[8]; Postemergence, 125 g ai/ha, visual rating after 13 to 15 days, scale 0 (no effect) to 100 (complete control)
  Plant response rating, Barley: 30
[8]; Postemergence, 250 g ai/ha, scale 0 to 100 (0 no effect, 100 complete control)
  Plant response rating, Barley: 50
[9]
  Plant response rating, Flood, Barnyardgrass: 55
[9]; [18]
  Plant response rating, Barnyardgrass: 15
[9]; [16]
  Plant response rating, Barnyardgrass: 20
[9]; [19]
  Plant response rating, Barnyardgrass: 40
Rice (Oryza sativa)
  Plant response rating, Flood, Rice: 60
Rice (Oryza sativa); [18]
  Plant response rating, Rice: 10
Rice (Oryza sativa); [16]
  Plant response rating, Rice: 15
Rice (Oryza sativa); [19]
  Plant response rating, Rice: 25
[10]
  Plant response rating, Flood, Sedge, Umbrella: 90
[10]; [18]
  Plant response rating, Sedge, Umbrella: 30
[10]; [16]
  Plant response rating, Sedge, Umbrella: 40
[10]; [19]
  Plant response rating, Sedge, Umbrella: 85
[11]
  Plant response rating, Flood, Ducksalad: 95
[11]; [18]
  Plant response rating, Ducksalad: 0
[11]; [16]
  Plant response rating, Ducksalad: 30
[11]; [19]
  Plant response rating, Ducksalad: 85
